# Test system: volunteers with CUD
# Assay: Phase 2a study, subjective effects of smoked cannabis (VAS, CRF)
# Assay type: in vivo, human
# Conditions: for reduction of cannabis' positive subjective effects compared to placebo: Phase 2a
# Procedure: Participants, in groups of 3−4, completed two 5-d inpatient periods (first period ‘A’ and second period ‘B’) separated by a ≥ 14-d outpatient washout. During the two testing periods, participants received AEF0117 or matching placebo in counterbalanced order (two dosing sequences: AEF0117 first or placebo first). Participants took capsules at 9:00 each day and then smoked a controlled amount of cannabis (approximately 67 mg of THC smoked over 6 min) 3.5 h later (12:30). Ratings of the subjective effects of cannabis were done five times after cannabis administration (20 min, 40 min, 60 min, 90 min and 120 min after cannabis) using a VAS (0–100 mm). […] Participants were told that the cannabis strength could vary from day to day and between participants but that the cannabis they each received at 12:30 that day was the strength available for self-administration that day.
# The primary endpoint measuring the good subjective effect of cannabis related to addiction was an ‘Intoxication’ subscale based on a cluster analysis of the 44-item VAS[22], comprising the arithmetic mean of two items: ‘I feel a Good Effect’ and ‘I feel High’[22]. The positive subjective effects of cannabis were further assessed by individual items on the Cannabis Rating Form (CRF)[23], where participants rated the cannabis that they had most recently smoked in terms of ‘Cannabis Cigarette Liking’ and ‘Felt Good Cannabis Effect’ (key secondary endpoints) using a VAS. Cannabis self-administration was evaluated by measuring the number of puffs purchased at each timepoint (key secondary endpoint).
# Data from the first dose level were reviewed by the Data Safety Monitoring Board before ascending to the next dose level.
# Ratings of subjective effects of cannabis were performed using multiple items from two different instruments: (1) the 44-item VAS[22] and (2) the CRF[23]. Both instruments used visual analog scales (from 0 mm to 100 mm) to measure subjective effects. […] The subscale of the 44-item VAS was initially named the ‘Good Cannabis Effect’ subscale. Before starting the statistical analysis, this subscale was renamed ‘Intoxication’ subscale to avoid confusion with a key secondary endpoint on the CRF labeled ‘Felt Good Cannabis Effect’.
# On each study day (days 1–5), at approximately 12:30, participants received an experimenter-administered ‘sample’ of cannabis (two cannabis cigarettes of approximately 800 mg, 7% THC, provided by NIDA). They were guided by an investigator through smoking a total of six 5-s inhalations using a paced-puff smoking procedure, where inhalation duration, time spent holding smoke in the lungs and inter-puff interval were timed. […] To capture a full timecourse of cannabis effects, participants completed the 44-item VAS and a CRF at 12:50, 13:10, 13:30, 14:[…].
# As specified in the SAP, the statistical analyses employed an MMRM analysis using the REML as estimation method and structured covariance matrix with compound symmetry; the model included as factors and covariates: sequence, dose, treatment, time and days as fixed effects and subject within sequence as random effect.
# Based on the SAP, the following analytical steps depending on results of the various analyses were undertaken. The primary and key secondary endpoints were first analyzed with a global crossover MMRM analysis (using combined cohorts: 0.06 mg + 1 mg).
# [1] = global crossover, 0.06 mg, 20 min after THC
# [2] = global crossover, 0.06 mg, 40 min after THC
# [3] = global crossover, 0.06 mg, 60 min after THC
# [4] = global crossover, 0.06 mg, 90 min after THC
# [5] = global crossover, 0.06 mg, 105 min after THC
# [6] = global crossover, 1 mg, 20 min after THC
# [7] = global crossover, 1 mg, 40 min after THC
# [8] = global crossover, 1 mg, 60 min after THC
# [9] = global crossover, 1 mg, 90 min after THC
# [10] = global crossover, 1 mg, 105 min after THC
# [11] = parallel group (period A), 0.06 mg, 20 min after THC
# [12] = parallel group (period A), 0.06 mg, 40 min after THC
# [13] = parallel group (period A), 0.06 mg, 60 min after THC
# [14] = parallel group (period A), 0.06 mg, 90 min after THC
# [15] = parallel group (period A), 0.06 mg, 105 min after THC
# [16] = parallel group (period A), 1 mg, 20 min after THC
# [17] = parallel group (period A), 1 mg, 40 min after THC
# [18] = parallel group (period A), 1 mg, 60 min after THC
# [19] = parallel group (period A), 1 mg, 90 min after THC
# [20] = parallel group (period A), 1 mg, 105 min after THC
structure (smiles),measurement,setting,value
"COc1ccc(CO[C@H]2CC[C@@]3(C)C(=CC[C@H]4[C@@H]5CC[C@H](C(C)=O)[C@@]5(C)CC[C@@H]43)C2)cc1 [AEF0117, 3β-(4-methoxybenzyloxy)pregn-5-en-20-one]",cannabis ratings,"0.06 mg, parallel group analysis, period A",significant reduction
same,'Felt Good Cannabis Effect' item on the CRF,"1 mg, global crossover MMRM",significantly reduced
same,ratings on the 'Intoxication' subscale of the 44-item VAS,"1 mg, global crossover MMRM",significantly reduced
same,reduction of cannabis' positive subjective effects compared to placebo,0.06 mg,19%
same,reduction of cannabis' positive subjective effects compared to placebo,1 mg,38%
same,"Cannabis cigarette liking item, mean",[1],76.2 mm
same,"Felt good cannabis effect item, mean",[1],77.9 mm
same,"Intoxication subscale, mean",[1],63.7 mm
same,"Cannabis cigarette liking item, mean",[2],74.9 mm
same,"Felt good cannabis effect item, mean",[2],76.1 mm
same,"Intoxication subscale, mean",[2],58.8 mm
same,"Cannabis cigarette liking item, mean",[3],72.6 mm
same,"Felt good cannabis effect item, mean",[3],72.7 mm
same,"Intoxication subscale, mean",[3],53.9 mm
same,"Cannabis cigarette liking item, mean",[4],73.5 mm
same,"Felt good cannabis effect item, mean",[4],75.8 mm
same,"Intoxication subscale, mean",[4],47.1 mm
same,"Cannabis cigarette liking item, mean",[5],73.2 mm
same,"Felt good cannabis effect item, mean",[5],75.0 mm
same,"Intoxication subscale, mean",[5],44.4 mm
same,"Cannabis cigarette liking item, mean",[6],61.7 mm
same,"Felt good cannabis effect item, mean",[6],66.8 mm
same,"Intoxication subscale, mean",[6],66.8 mm
same,"Cannabis cigarette liking item, mean",[7],57.8 mm
same,"Felt good cannabis effect item, mean",[7],62.4 mm
same,"Intoxication subscale, mean",[7],61.5 mm
same,"Cannabis cigarette liking item, mean",[8],54.8 mm
same,"Felt good cannabis effect item, mean",[8],58.0 mm
same,"Intoxication subscale, mean",[8],57.2 mm
same,"Cannabis cigarette liking item, mean",[9],54.0 mm
same,"Felt good cannabis effect item, mean",[9],56.1 mm
same,"Intoxication subscale, mean",[9],48.2 mm
same,"Cannabis cigarette liking item, mean",[10],54.4 mm
same,"Felt good cannabis effect item, mean",[10],54.7 mm
same,"Intoxication subscale, mean",[10],43.7 mm
same,"Cannabis cigarette liking item, mean",[11],68.3 mm
same,"Felt good cannabis effect item, mean",[11],73.0 mm
same,"Intoxication subscale, mean",[11],57.1 mm
same,"Cannabis cigarette liking item, mean",[12],65.5 mm
same,"Felt good cannabis effect item, mean",[12],70.2 mm
same,"Intoxication subscale, mean",[12],50.9 mm
same,"Cannabis cigarette liking item, mean",[13],62.3 mm
same,"Felt good cannabis effect item, mean",[13],65.7 mm
same,"Intoxication subscale, mean",[13],44.4 mm
same,"Cannabis cigarette liking item, mean",[14],61.8 mm
same,"Felt good cannabis effect item, mean",[14],67.4 mm
same,"Intoxication subscale, mean",[14],38.0 mm
same,"Cannabis cigarette liking item, mean",[15],63.1 mm
same,"Felt good cannabis effect item, mean",[15],68.2 mm
same,"Intoxication subscale, mean",[15],37.8 mm
same,"Cannabis cigarette liking item, mean",[16],63.9 mm
same,"Felt good cannabis effect item, mean",[16],67.9 mm
same,"Intoxication subscale, mean",[16],67.0 mm
same,"Cannabis cigarette liking item, mean",[17],59.3 mm
same,"Felt good cannabis effect item, mean",[17],60.6 mm
same,"Intoxication subscale, mean",[17],58.9 mm
same,"Cannabis cigarette liking item, mean",[18],54.5 mm
same,"Felt good cannabis effect item, mean",[18],53.3 mm
same,"Intoxication subscale, mean",[18],54.5 mm
same,"Cannabis cigarette liking item, mean",[19],55.7 mm
same,"Felt good cannabis effect item, mean",[19],50.7 mm
same,"Intoxication subscale, mean",[19],45.5 mm
same,"Cannabis cigarette liking item, mean",[20],55.9 mm
same,"Felt good cannabis effect item, mean",[20],52.3 mm
same,"Intoxication subscale, mean",[20],40.8 mm

# From PMC10287566, “Signaling-specific inhibition of the CB1 receptor for cannabis use disorder: phase 1 and phase 2a randomized trials” (Nature Medicine, 2023)
